Results from US20230250066A1, “HERBICIDAL CINNOLINE DERIVATIVES” (SYNGENTA CROP PROTECTION AG, priority 2020, published 2023).

Legend:
Format in all cases: in vivo
[1] = tested on: Echinochloa crus-galli (ECHCG); assay: Pre-emergence herbicidal test; details: 1000 g/ha, evaluated after 13 days
[2] = tested on: Abutilon theophrasti (ABUTH); assay: Pre-emergence herbicidal test; details: 1000 g/ha, evaluated after 13 days
Setaria faberi (SETFA) [3] = assay: Pre-emergence herbicidal test; details: 1000 g/ha, evaluated after 13 days
[4] = tested on: Ipomoea hederacea (IPOHE); assay: Pre-emergence herbicidal test; details: 1000 g/ha, evaluated after 13 days
Setaria faberi (SETFA) [5] = assay: Post-emergence herbicidal test; details: 1000 g/ha unless otherwise stated, evaluated after 13 days
In short: (§1)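 Spray-applied at 1000 g/ha unless stated, in the glasshouse. Damage rated 13 days later on a 0–5 scale.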

[6] = tested on: Ipomoea hederacea (IPOHE); assay: Post-emergence herbicidal test; details: 1000 g/ha unless otherwise stated, evaluated after 13 days
In short: as §1

[7] = tested on: Echinochloa crus-galli (ECHCG); assay: Post-emergence herbicidal test; details: 1000 g/ha unless otherwise stated, evaluated after 13 days
In short: as §1

[8] = tested on: Abutilon theophrasti (ABUTH); assay: Post-emergence herbicidal test; details: 1000 g/ha unless otherwise stated, evaluated after 13 days
In short: as §1

[9] = tested on: Amaranthus retoflexus (AMARE); assay: Post-emergence herbicidal test; details: 1000 g/ha unless otherwise stated, evaluated after 13 days
In short: as §1

Zea mays (ZEAMX) [10] = assay: Post-emergence herbicidal test; details: 1000 g/ha unless otherwise stated, evaluated after 13 days
In short: as §1

Zea mays (ZEAMX) [11] = assay: Pre-emergence herbicidal test; details: 1000 g/ha, evaluated after 13 days
[12] = tested on: Amaranthus retoflexus (AMARE); assay: Pre-emergence herbicidal test; details: 1000 g/ha, evaluated after 13 days

Row | SMILES | percentage damage caused to the plant, five-point scale, ECHCG [1] | percentage damage caused to the plant, five-point scale, ABUTH [2] | percentage damage caused to the plant, five-point scale, SETFA (Setaria faberi (SETFA) [3]) | percentage damage caused to the plant, five-point scale, IPOHE [4] | percentage damage caused to the plant, SETFA (five-point scale) (Setaria faberi (SETFA) [5]) | percentage damage caused to the plant, IPOHE (five-point scale) [6] | percentage damage caused to the plant, ECHCG (five-point scale) [7] | percentage damage caused to the plant, ABUTH (five-point scale) [8] | percentage damage caused to the plant, AMARE (five-point scale) [9] | percentage damage caused to the plant, ZEAMX (five-point scale) (Zea mays (ZEAMX) [10]) | percentage damage caused to the plant, five-point scale, ZEAMX (Zea mays (ZEAMX) [11]) | percentage damage caused to the plant, five-point scale, AMARE [12]
1 | O=C(O)c1nn(-c2ccc(OC(F)(F)F)cc2)c2cccc(S(=O)(=O)C3CC3)c2c1=O [Compound P29, 5-cyclopropylsulfonyl-4-oxo-1-[4-(trifluoromethoxy)phenyl]cinnoline-3-carboxylic acid] | 0 (0=0%) | 0 (0=0%) | 0 (0=0%) | 0 (0=0%) | 0 (0=0%) | 0 (0=0%) | 0 (0=0%) | 0 (0=0%) | 0 (0=0%) | 0 (0=0%) | 0 (0=0%) | 0 (0=0%)
2 | O=C(O)c1nn(-c2ccc(OC(F)(F)F)cc2)c2cccc(SC3CC3)c2c1=O [Compound P30, 5-cyclopropylsulfanyl-4-oxo-1-[4-(trifluoromethoxy)phenyl]cinnoline-3-carboxylic acid] | 0 (0=0%) | 0 (0=0%) | 0 (0=0%) | 0 (0=0%) | 1 (1=10-20%) | 1 (1=10-20%) | 1 (1=10-20%) | 1 (1=10-20%) | 1 (1=10-20%) | 1 (1=10-20%) | 0 (0=0%) | 0 (0=0%)
3 | O=C(O)c1nn(-c2ccc(OC(F)(F)F)cc2)c2cccc([S+]([O-])C3CC3)c2c1=O (stereo not drawn) [Compound P31, 5-cyclopropylsulfinyl-4-oxo-1-[4-(trifluoromethoxy)phenyl]cinnoline-3-carboxylic acid] | 0 (0=0%) | 0 (0=0%) | 0 (0=0%) | 0 (0=0%) | 0 (0=0%) | 0 (0=0%) | 0 (0=0%) | 0 (0=0%) | 0 (0=0%) | 0 (0=0%) | 0 (0=0%) | 0 (0=0%)
4 | CCOC(=O)c1nn(-c2ccc(OC(F)(F)F)cc2)c2cccc([S+]([O-])C3CC3)c2c1=O (stereo not drawn) [Compound P32, ethyl 5-cyclopropylsulfinyl-4-oxo-1-[4-(trifluoromethoxy)phenyl]cinnoline-3-carboxylate] | 1 (1=10-20%) | 0 (0=0%) | 2 (2=21-40%) | 0 (0=0%) | 1 (1=10-20%) | 0 (0=0%) | 1 (1=10-20%) | 0 (0=0%) | 0 (0=0%) | 1 (1=10-20%) | 0 (0=0%) | 0 (0=0%)
5 | CCOC(=O)c1nn(-c2ccc(OC(F)(F)F)cc2)c2cccc(SC3CC3)c2c1=O [Compound P33, ethyl 5-cyclopropylsulfanyl-4-oxo-1-[4-(trifluoromethoxy)phenyl]cinnoline-3-carboxylate] | 1 (1=10-20%) | 0 (0=0%) | 2 (2=21-40%) | 0 (0=0%) | 0 (0=0%) | 0 (0=0%) | 0 (0=0%) | 1 (1=10-20%) | 0 (0=0%) | 0 (0=0%) | 0 (0=0%) | 0 (0=0%)
6 | CCOC(=O)c1nn(-c2ccc(OC(F)(F)F)cc2)c2cccc(S(=O)(=O)C3CC3)c2c1=O [Compound P34, ethyl 5-cyclopropylsulfonyl-4-oxo-1-[4-(trifluoromethoxy)phenyl]cinnoline-3-carboxylate] | 0 (0=0%) | 0 (0=0%) | 0 (0=0%) | 0 (0=0%) | 0 (0=0%) | 0 (0=0%) | 0 (0=0%) | 0 (0=0%) | 0 (0=0%) | 0 (0=0%) | 0 (0=0%) | 0 (0=0%)
7 | O=C(O)c1nn(-c2ccc(OC(F)(F)F)cc2)c2cccc(S(=O)(=O)CC(F)(F)F)c2c1=O [Compound P35, 4-oxo-5-(2,2,2-trifluoroethylsulfonyl)-1-[4-(trifluoromethoxy)phenyl]cinnoline-3-carboxylic acid] | 0 (0=0%) | 1 (1=10-20%) | 0 (0=0%) | 0 (0=0%) | 2 (2=21-40%) | 0 (0=0%) | 1 (1=10-20%) | 1 (1=10-20%) | 1 (1=10-20%) | 1 (1=10-20%) | 1 (1=10-20%) | 0 (0=0%)
8 | O=C(O)c1nn(-c2ccc(OC(F)(F)F)cc2)c2cccc([S+]([O-])CC(F)(F)F)c2c1=O (stereo not drawn) [Compound P37, 4-oxo-5-(2,2,2-trifluoroethylsulfinyl)-1-[4-(trifluoromethoxy)phenyl]cinnoline-3-carboxylic acid] | 0 (0=0%) | 1 (1=10-20%) | 0 (0=0%) | 0 (0=0%) | 1 (1=10-20%) | 1 (1=10-20%) | 1 (1=10-20%) | 1 (1=10-20%) | 0 (0=0%) | 1 (1=10-20%) | 0 (0=0%) | 0 (0=0%)
